From patent US20250144172A1, “ANTI-FIBROTIC SIALIDASE INHIBITOR COMPOUNDS AND METHODS OF USE” (The Texas A&M University System, priority 2016, published 2025)
Like-named read-outs stand apart in the source and are kept apart here.

What was measured:
[1] = tested on: mice with bleomycin-induced fibrosis; assay: mouse bleomycin model of pulmonary fibrosis; format: in vivo; settings: day 21
Description: The successful aspiration of bleomycin into the lungs was confirmed by listening for a crackling noise heard after the aspiration. Mice were weighed daily, and euthanized using CO2 following NIH guidelines at day 21 after bleomycin aspiration. The experiment was performed in accordance with the recommendations in the Guide for the Care and Use of Laboratory Animals of the National Institutes of Health. The Texas A&M University Animal Use and Care Committee approved the protocol.
The BALs were clarified by centrifugation at 500×g for 10 minutes, and the supernatants were transferred to Eppendorf tubes. The supernatants were flash frozen with liquid nitrogen, and stored at −20° C. until further use.
After collection of BAL fluid, mouse lungs were inflated with prewarmed Optimal Cutting Temperature (OCT) embedding medium (VWR, Radnor, PA) and then embedded in OCT, frozen on dry ice, and then stored at −80° C. 6-micron cryosections of mouse lungs were mounted on Superfrost Plus® microscope slides (VWR). The sections on the slides were allowed to air-dry for 24-48 hours. The slides were then fixed in acetone at room temperature for 20 minutes and air-dried for 10 minutes.
Then, starting 24 hours after bleomycin had been administered, the mice were given daily intraperitoneal injections of 10 mg/kg DANA (Calbiochem) in PBS or 10 mg/kg oseltamivir (Sigma) in PBS. Both inhibitors are quite polar and thus probably remain in the extracellular space. Assuming 2 ml of extracellular space in a 20 gram mouse, these doses would then be ˜3 μM. At day 21, mice were sacrificed and BAL and cryosections of lungs were obtained as described for Example 3. The experiment was performed in accordance with the recommendations in the Guide for the Care and Use of Laboratory Animals of the National Institutes of Health. The Texas A&M University Animal Use and Care Committee approved the protocol.
Treatment of mice with oropharyngeal bleomycin results in an initial inflammation, and then a fibrosis that has begun by day 10 after bleomycin treatment. To determine if sialidase inhibitors decrease fibrosis when treatment starts after the initial inflammation stage and when fibrosis is present, mice were treated with oropharyngeal bleomycin to induce symptoms of pulmonary fibrosis as described above. Then, starting 10 days after bleomycin had been administered, the mice were given daily intraperitoneal injections of 10 mg/kg DANA (Calbiochem) in PBS or 10 mg/kg oseltamivir (Sigma) in PBS. At day 21, mice were sacrificed and BAL and cryosections of lungs were obtained as described above. The experiment was performed in accordance with the recommendations in the Guide for the Care and Use of Laboratory Animals of the National Institutes of Health. The Texas A&M University Animal Use and Care Committee approved the protocol.
To determine if sialidase inhibitors could also reduce TGF-β1 levels in mice, mice were treated with bleomycin or saline, then injected daily with saline, DANA or oseltamivir starting at day 10 after bleomycin treatment, as described in Example 9. The mice were euthanized at day 21 and sections of lung tissue were stained for TGF-β1. Results are presented in FIG. 11A and are representative of results for three mice per group.

human PBMC [2] = assay: TGF-β1 accumulation by human PBMC (antibody staining and ELISA); format: cell-based; settings: inhibitor 3 μM; sialidases 200 ng/ml; 5 days; ELISA
Description: To determine if sialidases might cause cells to accumulate intracellular and extracellular TGF-β1, human PBMC were cultured with sialidases in 96 well plates at 5×10^5 cells/ml and 200 μl/well in FibroLife serum-free medium for five days, then air dried. The levels of TGF-β1 in or on the cells was detected by staining with an antibody against TGF-β1. Photomicrographs were analyzed by counting stained cells (FIG. 7B) and quantifying staining intensity using ImageJ (FIG. 7C).
PBMC were cultured in 96 well plates at 5×10^5 cells/ml and 200 μl/well in FibroLife serum-free medium. When the cells were plated, recombinant human sialidases were added to final concentrations of 200 ng/ml, and DANA or oseltamivir were added to 3 μM. After 5 days, culture supernatants were analyzed using a TGF-β1 ELISA kit (R&D Systems).

[3] = molecular target: LPS-induced mouse macrophage sialidase activity; settings: cited from earlier work
murine sialidases = settings: mice, cited from earlier work
human sialidases = settings: all four human sialidases; carboxylate form; cited from earlier work
human PBMC [4] = assay: sialidase staining of human PBMC cultured with TGF-β1; format: cell-based; settings: 10 ng/ml TGF-β1, five days
Description: (§1) TGF-β1 is strongly associated with fibrosis so its effects on sialidase expression were determined. Human lung adenocarcinoma cell line A549, human small airway epithelial cells, human pulmonary fibroblasts, and human immune cells were cultured with or without 10 ng/ml of recombinant active TGF-β1, which is a standard concentration used in tissue culture experiments. After three days for A549 cells, airway epithelial cells, and fibroblasts, or five days for immune cells, the cells were stained with antibodies against sialidases.

[5] = tested on: human pulmonary fibroblasts; assay: human pulmonary fibroblasts cultured with TGF-β1; format: cell-based; settings: 10 ng/ml TGF-β1, three days
Description: as §1

A549 cells = assay: sialidase staining of A549 cells cultured with TGF-β1; format: cell-based, human; settings: 10 ng/ml TGF-β1, three days
Description: as §1

[6] = tested on: human small airway epithelial cells; assay: sialidase staining of human small airway epithelial cells cultured with TGF-β1; format: cell-based; settings: 10 ng/ml TGF-β1, three days
Description: as §1

[7] = 10 mg/kg daily i.p. starting at day 10

For `CCC(CC)[C@H](NC(C)=O)[C@@H]1[C@H](O)[C@@H](C(=O)O)C[C@H]1N=C(N)N` [Compound 58, (1S,2S,3S,4R)-3-[(1S)-1-acetamido-2-ethyl-butyl]-4-(diaminomethylideneamino)-2-hydroxy-cyclopentane-1-carboxylic acid], the “collagen deposition in the lungs (Sirius red)” value ([1]; 10 mg/kg daily i.p. starting 24 hours after bleomycin) was “reduced”, the “collagen deposition in the lungs (Sirius red)” value [1, 7] was “reduced” and the “total protein in BAL” value [1, 7] was “attenuated”. For the same compound, the “TGF-β1 levels in lung tissue (staining)” value ([1]; daily injection starting at day 10) was “reduced TGF-β1 levels”, the “effects of NEU2 and NEU3 on extracellular TGF-β1” value (human PBMC [2]) was “blocked” and the IC50 [3] was 1 µM. The “inhibitor of murine sialidases” value (murine sialidases; listed as Oseltamivir) was “potent sialidase inhibitor in mice”, the “inhibitor of murine sialidases” value (murine sialidases; listed as oseltamivir) was “potent inhibitor” and the “inhibitor of human sialidases” value (human sialidases) was “poor inhibitor”.
In the case of TGF-β1: recombinant active TGF-β1, the “sialidase levels (antibody staining)” value (human PBMC [4]) is reported as “increased levels of NEU2 and NEU3 in some cells”, the “proliferation of human pulmonary fibroblasts” value [5] is reported as “increased the proliferation” and the “sialidase levels (antibody staining)” value ([5]; pulmonary fibroblasts) is reported as “increase levels of NEU3”. For the same compound, the “sialidase levels (antibody staining)” value (A549 cells) was “increase levels of NEU3” and the “sialidase levels (antibody staining)” value [6] was “increase levels of NEU3, and slightly increased levels of NEU1”.
